Each structure is given as a SMILES string. pKi: −log10 of the molar value.

T1 sequence (P25108 21-457): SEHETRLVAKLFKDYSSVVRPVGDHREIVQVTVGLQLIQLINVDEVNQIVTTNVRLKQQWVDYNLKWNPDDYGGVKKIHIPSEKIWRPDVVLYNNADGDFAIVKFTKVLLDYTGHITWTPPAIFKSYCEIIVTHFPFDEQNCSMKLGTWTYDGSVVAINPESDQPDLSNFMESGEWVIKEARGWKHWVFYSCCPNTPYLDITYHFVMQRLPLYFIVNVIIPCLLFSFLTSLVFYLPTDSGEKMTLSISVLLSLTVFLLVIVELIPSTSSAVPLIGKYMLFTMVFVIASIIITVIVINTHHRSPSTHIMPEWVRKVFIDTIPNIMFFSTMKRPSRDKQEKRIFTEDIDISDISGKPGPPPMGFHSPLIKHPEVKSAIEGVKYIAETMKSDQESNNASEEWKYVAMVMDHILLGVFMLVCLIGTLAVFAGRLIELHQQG
T1 sequence (P25110 22-517): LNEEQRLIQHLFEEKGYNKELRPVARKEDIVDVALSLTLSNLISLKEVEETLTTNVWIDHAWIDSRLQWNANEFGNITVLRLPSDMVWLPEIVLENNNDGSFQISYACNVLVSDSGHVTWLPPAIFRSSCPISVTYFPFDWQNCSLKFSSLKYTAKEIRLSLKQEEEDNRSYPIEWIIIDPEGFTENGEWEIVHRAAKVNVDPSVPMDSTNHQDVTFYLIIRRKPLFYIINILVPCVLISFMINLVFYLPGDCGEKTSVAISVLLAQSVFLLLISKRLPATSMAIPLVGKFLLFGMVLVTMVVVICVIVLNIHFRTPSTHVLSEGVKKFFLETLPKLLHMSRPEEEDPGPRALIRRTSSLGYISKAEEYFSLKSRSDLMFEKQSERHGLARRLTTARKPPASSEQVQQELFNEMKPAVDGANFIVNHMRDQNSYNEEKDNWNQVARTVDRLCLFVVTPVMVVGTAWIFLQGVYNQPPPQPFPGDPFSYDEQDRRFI
T1 sequence (P25109 24-501): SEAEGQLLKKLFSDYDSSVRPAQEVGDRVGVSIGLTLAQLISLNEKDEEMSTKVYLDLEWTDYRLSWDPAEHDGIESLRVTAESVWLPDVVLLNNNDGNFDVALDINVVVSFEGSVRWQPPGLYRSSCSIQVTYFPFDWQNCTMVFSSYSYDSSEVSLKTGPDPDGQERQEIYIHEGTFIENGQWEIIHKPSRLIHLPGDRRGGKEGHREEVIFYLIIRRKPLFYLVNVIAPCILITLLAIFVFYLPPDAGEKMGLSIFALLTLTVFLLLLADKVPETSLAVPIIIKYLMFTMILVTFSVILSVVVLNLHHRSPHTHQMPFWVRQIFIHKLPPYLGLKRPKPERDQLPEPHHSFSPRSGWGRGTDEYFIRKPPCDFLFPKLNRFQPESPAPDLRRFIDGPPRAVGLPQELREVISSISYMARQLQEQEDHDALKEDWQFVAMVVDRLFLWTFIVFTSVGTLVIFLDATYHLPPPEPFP

One experiment concerns the target T1, α1β1γδ subtype of nicotinic acetylcholine receptors (Rattus norvegicus, UniProt P18916+P25108+P25109+P25110).
T1 construct: Native receptor, no construct: "Triton X100 (2% w/v) was added
The experiment in a line: Binding assays at α1β1γδ subtype of nicotinic acetylcholine receptors ([3H]-α-bungarotoxin, rat muscle extract).
Conditions: not given
Broadly, the pKi is −log10 of the Ki, conventionally taken in molar units. The compound `N=C1SCCN1Cc1ccc(Cl)nc1` [Compound 5, 3-(6-chloro-3-pyridyl)methyl-2-iminothiazolidine] had a pKi of 5.12.

In the case of `N=c1ccccn1Cc1ccc(Cl)nc1` [Compound 7, 1-(6-chloro-3-pyridyl)methyl-2-imino-1,2-dihydropyridine], the pKi was 4.15.

Compound `N=c1sccn1Cc1ccc(Cl)nc1` [Compound 8, 3-(6-chloro-3-pyridyl)methyl-2-imino-2,3-dihydrothiazole] gave a pKi of 4.99.

The experiment is the same for the next values; noted with them: rat muscle extract, [3H]-α-Bgt (1 nM); read-out: Affinities for receptors Ki α1β1γδ.
In the case of `Nc1nccn1Cc1cccnc1` [Compound 55, 2-amino-i-(3-pyridyl)methylimidazole], the pKi was 4.18.

The same experiment, now with this note: read-out: control % of [3H]-α-Bgt binding.
As to `Nc1nccn1Cc1ccc(Cl)nc1` [Compound 9, 2-amino-1-(6-chloro-3-pyridyl)methylimidazole], the remaining activity at 100 µM was determined as 86% and the remaining activity at 1000 µM was 49%.

Consider `N=c1sccn1Cc1ccc(Br)nc1` [Compound 11, 3-(6-bromo-3-pyridyl)methyl-2-imino-2,3-dihydrothiazole], for which the remaining activity at 100 µM was 13% and the remaining activity at 1000 µM was found to be 5%.

As for `N=c1sccn1Cc1ccc(F)nc1` [Compound 12, 3-(6-fluoro-3-pyridyl)methyl-2-imino-2,3-dihydrothiazole], the remaining activity at 100 µM came to 20% and the remaining activity at 1000 µM was -2%.

With `N=C1NCCN1Cc1ccc(Cl)nc1` [Compound 13, 1-(6-Chloro-3-pyridyl)methyl-2-iminoimidazolidine], the remaining activity at 100 µM turned out to be 26% and the remaining activity at 1000 µM was determined as 8%.

Take `N=C1CCCN1Cc1ccc(Cl)nc1` [Compound 14, 1-(6-Chloro-3-pyridyl)methyl-2-iminopyrrolidine]: the remaining activity at 100 µM turned out to be 14% and the remaining activity at 1000 µM amounted to 0%.

Take `N=C1SCCN1Cc1ccc(Cl)cc1` [Compound 31, 3-(4-chlorobenzyl)-2-iminothiazolidine]: the remaining activity at 100 µM is 37% and the remaining activity at 1000 µM was 10%.

`N=C1SCCN1Cc1ccnnc1` [Compound 33, 2-imino-3-(4-pyridazinyl)methylthiazolidine]: the remaining activity at 100 µM amounted to 15% and the remaining activity at 1000 µM amounted to 1%.

In the case of `N=C1SCCN1Cc1cnc(Cl)s1` [Compound 34, 3-(2-chloro-5-thiazolyl)methyl-2-iminothiazolidine], the remaining activity at 100 µM turned out to be 14% and the remaining activity at 1000 µM was -1%.

With `N=c1ccc(-c2ccccc2)nn1Cc1ccc(Cl)nc1` [Compound 44, 2-(6-chloro-3-pyridyl)methyl-3-imino-6-phenyl-2,3-dihydropyridazine], the remaining activity at 100 µM is 80% and the remaining activity at 1000 µM was determined as 26%.

Values taken from patent US20020028809A1 (SUNTORY LIMITED, priority 1999, published 2002).
